Converted amounts (≈) assume the structure as drawn. Where two headings read alike, the source gives them in different places.
What was measured:
Assay in all cases: MIC, broth microdilution
S. aureus GC 1131 = settings: Staphylococcus aureus
S. aureus GC 6467 = settings: Staphylococcus aureus
E. faecalis GC 2265 = settings: Enterococcus faecalis
S. aureus GC 6469 = settings: Staphylococcus aureus
E. coli GC 2271 = settings: Escherichia coli
S. epidermidis GC 4935 = settings: Staphylococcus epidermidis
c. albicans GC 3066 = tested on: c. albicans GC 3066
E. coli GC 2203 = settings: Escherichia coli
P. aeruginosa GC 2214 = settings: Pseudomonas aeruginosa
E. faecalis GC 2267 = settings: Enterococcus faecalis
E. faecium GC 2243 = settings: Enterococcus faecium
E. coli GC 2272 = settings: Escherichia coli
E. coli GC 2270 = settings: Escherichia coli
E. coli GC 2233 = settings: Escherichia coli
S. aureus GC 6335 = settings: Staphylococcus aureus
E. coli GC 6465 = settings: Escherichia coli
S. aureus GC 1079 = settings: Staphylococcus aureus
E. coli GC 3226 = settings: Escherichia coli
E. coli GC 4560 = settings: Escherichia coli
E. coli GC 1073 = settings: Escherichia coli

MIC (S. aureus GC 1131; GC1131, read-out: MINIMAL INHIBITORY CONCENTRATION MIC, pre-incubated in Human Serum): 0.5 µg/mL (≈ 0.685 µM)
MIC (S. aureus GC 1131; GC1131, read-out: MINIMAL INHIBITORY CONCENTRATION MIC, pre-incubated in Mouse Serum): 0.5 µg/mL (≈ 0.685 µM)
MIC (S. aureus GC 1131; GC1131, read-out: MINIMAL INHIBITORY CONCENTRATION MIC, pre-incubated in Water): 1 µg/mL (≈ 1.37 µM)
MIC (S. aureus GC 6467; GC6467, read-out: MINIMAL INHIBITORY CONCENTRATION MIC, pre-incubated in Human Serum): 1 µg/mL (≈ 1.37 µM)
MIC (S. aureus GC 6467; GC6467, read-out: MINIMAL INHIBITORY CONCENTRATION MIC, pre-incubated in Mouse Serum): 1 µg/mL (≈ 1.37 µM)
MIC (S. aureus GC 6467; GC6467, read-out: MINIMAL INHIBITORY CONCENTRATION MIC, pre-incubated in Water): 2 µg/mL (≈ 2.74 µM)
MIC (E. faecalis GC 2265; GC2265, read-out: MINIMAL INHIBITORY CONCENTRATION MIC, pre-incubated in Human Serum): 1 µg/mL (≈ 1.37 µM)
MIC (E. faecalis GC 2265; GC2265, read-out: MINIMAL INHIBITORY CONCENTRATION MIC, pre-incubated in Mouse Serum): 0.5 µg/mL (≈ 0.685 µM)
MIC (E. faecalis GC 2265; GC2265, read-out: MINIMAL INHIBITORY CONCENTRATION MIC, pre-incubated in Water): 4 µg/mL (≈ 5.48 µM)
MIC (S. aureus GC 6469; GC6469, read-out: MINIMAL INHIBITORY CONCENTRATION MIC, pre-incubated in Human Serum): 0.5 µg/mL (≈ 0.685 µM)
MIC (S. aureus GC 6469; GC6469, read-out: MINIMAL INHIBITORY CONCENTRATION MIC, pre-incubated in Mouse Serum): 1 µg/mL (≈ 1.37 µM)
MIC (S. aureus GC 6469; GC6469, read-out: MINIMAL INHIBITORY CONCENTRATION MIC, pre-incubated in Water): 1 µg/mL (≈ 1.37 µM)
MIC (E. coli GC 2271; GC2271, read-out: MINIMAL INHIBITORY CONCENTRATION MIC, pre-incubated in Human Serum): 4 µg/mL (≈ 5.48 µM)
MIC (E. coli GC 2271; GC2271, read-out: MINIMAL INHIBITORY CONCENTRATION MIC, pre-incubated in Mouse Serum): 0.5 µg/mL (≈ 0.685 µM)
MIC (E. coli GC 2271; GC2271, read-out: MINIMAL INHIBITORY CONCENTRATION MIC, pre-incubated in Water): 16 µg/mL (≈ 21.9 µM)
MIC (S. epidermidis GC 4935; GC4935, read-out: MINIMAL INHIBITORY CONCENTRATION MIC, pre-incubated in Human Serum): 1 µg/mL (≈ 1.37 µM)
MIC (S. epidermidis GC 4935; GC4935, read-out: MINIMAL INHIBITORY CONCENTRATION MIC, pre-incubated in Mouse Serum): 1 µg/mL (≈ 1.37 µM)
MIC (S. epidermidis GC 4935; GC4935, read-out: MINIMAL INHIBITORY CONCENTRATION MIC, pre-incubated in Water): 2 µg/mL (≈ 2.74 µM)
MIC (c. albicans GC 3066; Candida albicans, GC3066, read-out: MINIMAL INHIBITORY CONCENTRATION MIC): > 64 µg/mL
MINIMAL INHIBITORY CONCENTRATION MIC (c. albicans GC 3066; pre-incubated in Human Serum): >64 UG/ML
MINIMAL INHIBITORY CONCENTRATION MIC (c. albicans GC 3066; pre-incubated in Mouse Serum): >64 UG/ML
MIC (E. coli GC 2203; GC2203, read-out: MINIMAL INHIBITORY CONCENTRATION MIC, pre-incubated in Human Serum): 4 µg/mL (≈ 5.48 µM)
MIC (E. coli GC 2203; GC2203, read-out: MINIMAL INHIBITORY CONCENTRATION MIC, pre-incubated in Mouse Serum): 0.5 µg/mL (≈ 0.685 µM)
MIC (E. coli GC 2203; GC2203, read-out: MINIMAL INHIBITORY CONCENTRATION MIC, pre-incubated in Water): 32 µg/mL (≈ 43.8 µM)
MIC (P. aeruginosa GC 2214; GC2214, read-out: MINIMAL INHIBITORY CONCENTRATION MIC, pre-incubated in Human Serum): > 64 µg/mL
MIC (P. aeruginosa GC 2214; GC2214, read-out: MINIMAL INHIBITORY CONCENTRATION MIC, pre-incubated in Mouse Serum): 16 µg/mL (≈ 21.9 µM)
MIC (P. aeruginosa GC 2214; GC2214, read-out: MINIMAL INHIBITORY CONCENTRATION MIC, pre-incubated in Water): > 64 µg/mL
MIC (E. faecalis GC 2267; GC2267, read-out: MINIMAL INHIBITORY CONCENTRATION MIC, pre-incubated in Human Serum): 1 µg/mL (≈ 1.37 µM)
MIC (E. faecalis GC 2267; GC2267, read-out: MINIMAL INHIBITORY CONCENTRATION MIC, pre-incubated in Mouse Serum): 0.5 µg/mL (≈ 0.685 µM)
MIC (E. faecalis GC 2267; GC2267, read-out: MINIMAL INHIBITORY CONCENTRATION MIC, pre-incubated in Water): 2 µg/mL (≈ 2.74 µM)
MIC (E. faecium GC 2243; GC2243, read-out: MINIMAL INHIBITORY CONCENTRATION MIC, pre-incubated in Human Serum): 1 µg/mL (≈ 1.37 µM)
MIC (E. faecium GC 2243; GC2243, read-out: MINIMAL INHIBITORY CONCENTRATION MIC, pre-incubated in Mouse Serum): 0.5 µg/mL (≈ 0.685 µM)
MIC (E. faecium GC 2243; GC2243, read-out: MINIMAL INHIBITORY CONCENTRATION MIC, pre-incubated in Water): 2 µg/mL (≈ 2.74 µM)
MIC (E. coli GC 2272; GC2272, read-out: MINIMAL INHIBITORY CONCENTRATION MIC, pre-incubated in Human Serum): 8 µg/mL (≈ 11 µM)
MIC (E. coli GC 2272; GC2272, read-out: MINIMAL INHIBITORY CONCENTRATION MIC, pre-incubated in Mouse Serum): 1 µg/mL (≈ 1.37 µM)
MIC (E. coli GC 2272; GC2272, read-out: MINIMAL INHIBITORY CONCENTRATION MIC, pre-incubated in Water): 16 µg/mL (≈ 21.9 µM)
MIC (E. coli GC 2270; GC2270, read-out: MINIMAL INHIBITORY CONCENTRATION MIC, pre-incubated in Human Serum): 4 µg/mL (≈ 5.48 µM)
MIC (E. coli GC 2270; GC2270, read-out: MINIMAL INHIBITORY CONCENTRATION MIC, pre-incubated in Mouse Serum): 0.5 µg/mL (≈ 0.685 µM)
MIC (E. coli GC 2270; GC2270, read-out: MINIMAL INHIBITORY CONCENTRATION MIC, pre-incubated in Water): 32 µg/mL (≈ 43.8 µM)
MIC (E. coli GC 2233; GC2233, read-out: MINIMAL INHIBITORY CONCENTRATION MIC, pre-incubated in Human Serum): 4 µg/mL (≈ 5.48 µM)
MIC (E. coli GC 2233; GC2233, read-out: MINIMAL INHIBITORY CONCENTRATION MIC, pre-incubated in Mouse Serum): 1 µg/mL (≈ 1.37 µM)
MIC (E. coli GC 2233; GC2233, read-out: MINIMAL INHIBITORY CONCENTRATION MIC, pre-incubated in Water): 16 µg/mL (≈ 21.9 µM)
MIC (S. aureus GC 6335; GC6335, read-out: MINIMAL INHIBITORY CONCENTRATION MIC, pre-incubated in Human Serum): 0.5 µg/mL (≈ 0.685 µM)
MIC (S. aureus GC 6335; GC6335, read-out: MINIMAL INHIBITORY CONCENTRATION MIC, pre-incubated in Mouse Serum): 1 µg/mL (≈ 1.37 µM)
MIC (S. aureus GC 6335; GC6335, read-out: MINIMAL INHIBITORY CONCENTRATION MIC, pre-incubated in Water): 2 µg/mL (≈ 2.74 µM)
MIC (E. coli GC 6465; GC6465, read-out: MINIMAL INHIBITORY CONCENTRATION MIC, pre-incubated in Human Serum): 16 µg/mL (≈ 21.9 µM)
MIC (E. coli GC 6465; GC6465, read-out: MINIMAL INHIBITORY CONCENTRATION MIC, pre-incubated in Mouse Serum): 2 µg/mL (≈ 2.74 µM)
MIC (E. coli GC 6465; GC6465, read-out: MINIMAL INHIBITORY CONCENTRATION MIC, pre-incubated in Water): > 64 µg/mL
MIC (S. aureus GC 1079; GC1079, read-out: MINIMAL INHIBITORY CONCENTRATION MIC, pre-incubated in Human Serum): 0.12 µg/mL (≈ 0.164 µM)
MIC (S. aureus GC 1079; GC1079, read-out: MINIMAL INHIBITORY CONCENTRATION MIC, pre-incubated in Mouse Serum): 0.5 µg/mL (≈ 0.685 µM)
MIC (S. aureus GC 1079; GC1079, read-out: MINIMAL INHIBITORY CONCENTRATION MIC, pre-incubated in Water): 1 µg/mL (≈ 1.37 µM)
MIC (E. coli GC 3226; GC3226, read-out: MINIMAL INHIBITORY CONCENTRATION MIC, pre-incubated in Human Serum): 8 µg/mL (≈ 11 µM)
MIC (E. coli GC 3226; GC3226, read-out: MINIMAL INHIBITORY CONCENTRATION MIC, pre-incubated in Mouse Serum): 1 µg/mL (≈ 1.37 µM)
MIC (E. coli GC 3226; GC3226, read-out: MINIMAL INHIBITORY CONCENTRATION MIC, pre-incubated in Water): 64 µg/mL (≈ 87.7 µM)
MIC (E. coli GC 4560; GC4560, read-out: MINIMAL INHIBITORY CONCENTRATION MIC, pre-incubated in Human Serum): 0.5 µg/mL (≈ 0.685 µM)
MIC (E. coli GC 4560; GC4560, read-out: MINIMAL INHIBITORY CONCENTRATION MIC, pre-incubated in Mouse Serum): 0.25 µg/mL (≈ 0.343 µM)
MIC (E. coli GC 4560; GC4560, read-out: MINIMAL INHIBITORY CONCENTRATION MIC, pre-incubated in Water): 2 µg/mL (≈ 2.74 µM)
MIC (E. coli GC 1073; GC1073, read-out: MINIMAL INHIBITORY CONCENTRATION MIC, pre-incubated in Human Serum): 8 µg/mL (≈ 11 µM)
MIC (E. coli GC 1073; GC1073, read-out: MINIMAL INHIBITORY CONCENTRATION MIC, pre-incubated in Mouse Serum): 1 µg/mL (≈ 1.37 µM)
MIC (E. coli GC 1073; GC1073, read-out: MINIMAL INHIBITORY CONCENTRATION MIC, pre-incubated in Water): 64 µg/mL (≈ 87.7 µM)
SMILES: CC(C)C(=O)OCOC(=O)N(CC(=O)Nc1cc(N(C)C)c2c(c1O)C(=O)C1=C(O)[C@]3(O)C(=O)C(C(N)=O)=C(O)[C@@H](N(C)C)[C@@H]3C[C@@H]1C2)C(C)(C)C [Example 45, ({[(2-{[(5aR,6aS,7S,10aS)-9-(aminocarbonyl)-4,7-bis(dimethylamino)-1,8,10a,11-tetrahydroxy-10,12-dioxo-5,5a,6,6a,7,10,10a,12-octahydrotetracen-2-yl]amino}-2-oxoethyl)(tert-butyl)amino]carbonyl}oxy)methyl 2-methylpropanoate]
